“Also recorded” adds a separate entry of the source. Values belong to the compound of their own block, whether it stands above or below them.
Assays:
human estrogen receptor [1] = target: T1, human estrogen receptor (Homo sapiens, UniProt P03372); assay: ER transcriptional activity on MMTV-ERE-LUC, CV-1 cells, ER co-expressed with PR-B; assay type: cell-based; settings: FIG. 11B
T1 construct: expressed in transfected cells; host or cells: CV-1
T1 sequence (P03372 1-595): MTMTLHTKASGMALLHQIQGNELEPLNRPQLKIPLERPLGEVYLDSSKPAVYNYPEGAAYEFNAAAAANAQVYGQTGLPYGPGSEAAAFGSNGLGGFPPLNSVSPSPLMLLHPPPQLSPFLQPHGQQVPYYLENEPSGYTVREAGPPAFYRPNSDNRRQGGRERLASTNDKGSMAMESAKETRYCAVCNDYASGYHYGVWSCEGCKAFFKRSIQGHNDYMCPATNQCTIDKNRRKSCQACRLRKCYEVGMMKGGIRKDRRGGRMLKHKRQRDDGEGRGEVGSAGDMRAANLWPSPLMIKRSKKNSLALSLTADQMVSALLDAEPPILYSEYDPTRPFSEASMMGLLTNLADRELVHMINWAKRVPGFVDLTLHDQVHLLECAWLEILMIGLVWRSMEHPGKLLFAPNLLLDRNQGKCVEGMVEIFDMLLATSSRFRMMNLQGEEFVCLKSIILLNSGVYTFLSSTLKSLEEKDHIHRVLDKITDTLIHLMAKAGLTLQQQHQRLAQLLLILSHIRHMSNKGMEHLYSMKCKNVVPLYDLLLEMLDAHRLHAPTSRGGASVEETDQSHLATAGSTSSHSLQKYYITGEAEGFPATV
Description: (§1) All values were normalized for transfection efficiency by simultaneous estimation of luciferase and β-galactocidase activities. The relative luciferase activity is calculated by dividing the normalized luciferase value at a given point by that obtained in the absence of transfected receptor or ligand. Data shown represent the mean +/- the average deviation from the mean of triplicate estimations.
(§2) Vegeto et al., supra. Cells were plated into 96-well tissue culture plates. The vector DNA was introduced into the CV-1 cells using calcium phosphate coprecipitation as described herein. More specifically, 20 μg of DNA/ml of transfection buffer were used in each transfection. Each transfection mix included 0.5 μg of pRST7hER, 9.5 μg of MMTV-ERE-LUC, 5 μg of pCH110, (which contains the gene for β-galactosidase) as an internal control and 5 μg of PGEM4 DNA as a carrier. […] The concentration of pXVhPR-A vector chosen was determined by performing the experiment at several different concentrations of vector, and then using that concentration that was optimal for transcriptional readout. […] The Normalized LUC activity was calculated by dividing the raw luciferase (×10^4) units for each point by the β-galactosidase activity [(OD415 nm ×10^5)/time min.] at that point.

human estrogen receptor [2] = target: T1, human estrogen receptor; assay: ER transcriptional activity on MMTV-ERE-LUC, CV-1 cells, ER alone; assay type: cell-based; settings: 10^-7 M 17-β-estradiol, FIG. 11B
Description: as §1
(§3) Experimental protocols and data calculation are as described in FIG. 11. The experiment detailed above is representative of independent assays (N>3). Data shown represent the mean +/- the average deviation from the mean of triplicate estimations.
as §2, with “transfection.” for “transfection. Each transfection mix included 0.5 μg of pRST7hER, 9.5 μg of MMTV-ERE-LUC, 5 μg of pCH110, (which contains the gene for β-galactosidase) as an internal control and 5 μg of PGEM4 DNA as a carrier.”

human estrogen receptor [3] = assay: ER transcriptional activity on MMTV-ERE-LUC, CV-1 cells, ER co-expressed with PR-A; assay type: cell-based
Description: as §1, §3
Vegeto et al., supra. Cells were plated into 96-well tissue culture plates. The vector DNA was introduced into the CV-1 cells using calcium phosphate coprecipitation as described herein. More specifically, 20 μg of DNA/ml of transfection buffer were used in each transfection. Each transfection mix included 0.5 μg of pRST7hER, 9.5 μg of MMTV-ERE-LUC, 5 μg of pCH110, (which contains the gene for β-galactosidase) as an internal control and 5 μg of PGEM4 DNA as a carrier. Depending on the experiment, 0.1 μg pSVhPR-A or pSVhPR-B and an amount of pSVXV2neo (Dr. Bert O'Malley, Baylor College of Medicine) to bring the total amount of DNA to 20 μg was added. The concentration of pXVhPR-A vector chosen was determined by performing the experiment at several different concentrations of vector, and then using that concentration that was optimal for transcriptional readout. The concentration of pSVhPR-B vector was chosen based upon the amount required to give an identical amount of immunoreactive PR-A and PR-B. After transfections using a Biomek 1000 automated laboratory workstation, the cells were incubated with the precipitate for 6 hours. Cells were washed with PBS and incubated for 40 hours with or without hormones as indicated. Cell extracts were prepared as previously described herein and assayed for luciferase (LUC) and β-galactosidase activities. The Normalized LUC activity was calculated by dividing the raw luciferase (×10^4) units for each point by the β-galactosidase activity [(OD415 nm ×10^5)/time min.] at that point.

ER = ER transcriptional activity on MMTV-ERE-LUC in HepG2 and HS578T cells; assay type: cell-based; settings: data not shown
PR = settings: cited from earlier work
human androgen receptor [4] = target: T2, human androgen receptor (Homo sapiens, UniProt P10275); assay: AR transcriptional activity on MMTV-LUC, CV-1 cells, AR alone; assay type: cell-based; settings: FIG. 10
T2 sequence (P10275 1-920): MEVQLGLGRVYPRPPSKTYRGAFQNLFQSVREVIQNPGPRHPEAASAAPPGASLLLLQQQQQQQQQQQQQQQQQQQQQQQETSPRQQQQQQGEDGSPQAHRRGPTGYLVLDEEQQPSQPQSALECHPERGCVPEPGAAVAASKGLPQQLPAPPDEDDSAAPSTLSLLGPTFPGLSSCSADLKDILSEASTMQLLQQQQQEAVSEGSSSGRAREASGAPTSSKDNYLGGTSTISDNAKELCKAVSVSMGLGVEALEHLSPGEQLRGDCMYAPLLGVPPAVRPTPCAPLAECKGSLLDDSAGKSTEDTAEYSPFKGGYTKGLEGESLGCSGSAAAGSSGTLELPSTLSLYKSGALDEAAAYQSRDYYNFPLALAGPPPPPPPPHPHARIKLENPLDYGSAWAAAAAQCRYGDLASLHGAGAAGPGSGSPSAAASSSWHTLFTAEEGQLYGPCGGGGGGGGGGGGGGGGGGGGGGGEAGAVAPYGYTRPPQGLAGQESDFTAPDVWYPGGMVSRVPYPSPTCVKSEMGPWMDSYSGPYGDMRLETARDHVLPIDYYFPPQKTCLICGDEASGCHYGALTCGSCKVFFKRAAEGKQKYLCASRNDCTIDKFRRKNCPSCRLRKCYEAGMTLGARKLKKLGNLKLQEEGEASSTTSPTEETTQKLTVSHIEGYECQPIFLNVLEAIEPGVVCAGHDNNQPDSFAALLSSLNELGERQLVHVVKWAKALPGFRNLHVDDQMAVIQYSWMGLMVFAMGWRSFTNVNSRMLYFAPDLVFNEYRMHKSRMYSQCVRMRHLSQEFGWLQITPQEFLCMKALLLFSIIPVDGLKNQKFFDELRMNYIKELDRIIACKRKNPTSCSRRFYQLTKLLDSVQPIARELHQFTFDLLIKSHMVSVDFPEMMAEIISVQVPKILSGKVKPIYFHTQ
Description: (§4) FIGS. 10A-10B are a series of graphs showing CV-1 cells that were transiently transfected with an expression vector for the human androgen receptor (pRShAR) alone, or in combination with phPR-A together with 5 µg/ml of the MMTV-LUC reporter and 5 µg/ml of pCH110 as an internal control. […] The relative luciferase activity is calculated by dividing the normalized luciferase value at a given point by that obtained in the absence of transfected receptor or ligand. […] The data are presented as percent (%) activation, where 100% represents the maximal induction achieved by human androgen receptor at 10^ -8 M DHT. The experimental data represents mean values +/- the average deviation from the mean of quadruplicate estimations;
(§5) Cells were seeded in 12-well, 96-well or 10 cm tissue culture plates. […] 20 μg of DNA/ml of transfection buffer were used in each transfection reaction. In this mix, the concentration of the luciferase plasmids and that of the internal control plasmid pCH110 (Pharmacia, Inc.), which contains the gene for the β-galactosidase enzyme, remained constant ([…] of each plasmid DNA), while the receptor plasmid concentration varied as indicated for each experiment. […]

human androgen receptor [5] = target: T2, human androgen receptor; assay: AR transcriptional activity on MMTV-LUC, CV-1 cells, AR co-expressed with PR-A; assay type: cell-based; settings: AR plus PR-A, FIG. 10B
Description: as §4, §5

[6] = system: glucocorticoid receptor (GR); assay: GR transcriptional activity on MMTV-LUC, CV-1 cells, GR co-expressed with PR-A; assay type: cell-based
Description: (§6) Cells were seeded in 12-well, 96-well or 10 cm tissue culture plates. […] 20 μg of DNA/ml of transfection buffer were used in each transfection reaction. In this mix, the concentration of the luciferase plasmids and that of the internal control plasmid pCH110 (Pharmacia, Inc.), which contains the gene for the β-galactosidase enzyme, remained constant ([…] of each plasmid DNA), while the receptor plasmid concentration varied as indicated for each experiment. Different amounts of receptor parental plasmid, pSV2-neo (Dr. Bert O'Malley, Baylor College of Medicine, Houston, Tex.) was included to keep constant the total amount of the SV40 enhancer vectors. pGEM4 plasmid DNA (Promega Biotech, Madison, Wis.) was added to balance the total DNA concentration to 20 g/reaction. For the 96-well plate experiments, transfections were performed on a Biomek 1000 Automated Laboratory Workstation (Beckman Instruments, Fullerton, Calif.).
(§7) Cells were seeded 24 hours prior to transfection in the fiat-bottom tissue culture plates ([…]) in phenol red-free DMEM containing 10% FCS. […] Using calcium phosphate co-precipitation, DNA solution was added dropwise with vortexing into an equal volume of 2X HBS pH 6.9 (280 mM NaCl. 50 mM HEPES, 1.5 mM Na2 HPO4) and precipitates were allowed to form for 20 minutes. Cells were transfected ( […] of DNA mix/well) for 6 hours and then washed with phosphate-bufferedsaline (PBS) to remove the precipitate. Cells were incubated for an additional 24 hours in phenol red-free medium containing 10% charcoal-treated FCS, with or without hormones as indicated in the text. Cell extracts were prepared as described by Berger et al., Supra, and assayed for luciferase and β-galactosidase activities. All determinations were performed in triplicates in at least two independent experiments, and were normalized for transfection efficiency by using β-galactosidase as an internal control.

AR = settings: stated without data; cited from earlier work
[7] = target: T3, glucocorticoid receptor (GR) (Homo sapiens, UniProt P04150)
T3 sequence (P04150 1-777): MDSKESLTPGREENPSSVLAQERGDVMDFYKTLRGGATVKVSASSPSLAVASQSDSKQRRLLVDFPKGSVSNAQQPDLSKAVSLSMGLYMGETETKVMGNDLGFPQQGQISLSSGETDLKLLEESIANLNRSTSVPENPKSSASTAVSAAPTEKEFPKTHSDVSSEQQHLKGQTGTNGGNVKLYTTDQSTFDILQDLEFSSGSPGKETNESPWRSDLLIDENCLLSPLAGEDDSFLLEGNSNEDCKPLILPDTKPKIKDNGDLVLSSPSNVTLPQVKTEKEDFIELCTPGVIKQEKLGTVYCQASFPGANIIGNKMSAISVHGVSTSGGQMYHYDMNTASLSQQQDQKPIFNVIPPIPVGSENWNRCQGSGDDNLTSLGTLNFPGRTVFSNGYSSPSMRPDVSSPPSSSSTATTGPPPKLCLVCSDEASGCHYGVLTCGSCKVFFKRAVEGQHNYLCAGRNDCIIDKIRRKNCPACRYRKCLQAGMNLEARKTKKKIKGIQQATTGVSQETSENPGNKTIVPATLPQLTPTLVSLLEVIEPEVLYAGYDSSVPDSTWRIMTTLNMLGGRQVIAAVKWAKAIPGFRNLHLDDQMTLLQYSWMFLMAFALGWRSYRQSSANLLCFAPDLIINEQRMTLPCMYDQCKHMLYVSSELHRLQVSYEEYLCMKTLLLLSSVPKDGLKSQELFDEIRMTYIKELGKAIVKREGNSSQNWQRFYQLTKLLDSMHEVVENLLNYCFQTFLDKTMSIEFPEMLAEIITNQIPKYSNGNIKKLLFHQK
Description: as §6, §7

Structure (SMILES): CCCCN(C)C(=O)CCCCCCCCCC[C@@H]1Cc2cc(O)ccc2[C@H]2CC[C@]3(C)[C@@H](O)CC[C@H]3[C@H]12 [ICI-164,384]
effect of hPR-B co-expression on activity of ICI-164,384 (human estrogen receptor [1]): did not affect the activity
inhibition of 17-β-estradiol induced ER transcriptional activation (human estrogen receptor [2]): can be inhibited by addition of the pure anti-estrogen ICI-164,384
effect of hPR-A co-expression on activity of ICI-164,384 (human estrogen receptor [3]; FIG. 11B): did not affect the activity

IC50 (human estrogen receptor [3]; 10^-7 M 17-β-estradiol, read-out: half maximal inhibition (IC50) of ER in the presence of hPR-A): 3 nM
Structure (SMILES): CN(C)c1ccc([C@H]2C[C@]3(C)[C@@H](CC[C@]3(O)CCCO)[C@@H]3CCC4=CC(=O)CCC4=C32)cc1 [ZK98299]
anti-estrogenic activity (ER; HS578T cells): both anti-progestins functioned as anti-estrogens
anti-estrogenic activity (ER; HepG2 cells): neither anti-progestin exhibited any anti-estrogenic activity
effect on PR DNA binding (PR): retards DNA binding; also recorded: interferes with DNA binding
effect on DHT-induced AR activity (human androgen receptor [4]): minimal direct effects on AR transcriptional activity
effect on DHT-induced AR activity in the presence of PR-A (human androgen receptor [5]): addition of PR-A to the cells increased this compound's sensitivity
inhibition of GR function via PR-A ([6]; MMTV promoter, dexamethasone present, FIG. 8A): mediated an inhibition of GR function; also recorded: promotes PR-A repressor function
affinity for AR (AR): low affinity for AR
efficacy compared to the pure anti-estrogen ICI-164,384 (human estrogen receptor [3]; PR-A co-expressed, 100% = 10^-7 M 17-β-estradiol + 10^-6 M ICI-164,384, FIG. 12): 70%

maximally activated GR (100% value) [7]: > 450 normalized response
maximal activity of GR (100% value) ([7]; cv-1 cells, 0.01 µM): > 450 fold normalized response
induction of MMTV promoter activity ([7]; cv-1 cells, 24 h, 0.1 µM): 450 fold
Structure (SMILES): C[C@@H]1C[C@H]2[C@@H]3CCC4=CC(=O)C=C[C@]4(C)[C@@]3(F)[C@@H](O)C[C@]2(C)[C@@]1(O)C(=O)CO [dexamethasone]
dexamethasone induction of GR activity, of control levels [6]: about 53%

Structure (SMILES): CC(=O)O[C@]1(C(C)=O)CC[C@H]2[C@@H]3C[C@H](C)C4=CC(=O)CC[C@]4(C)[C@H]3CC[C@@]21C [medroxyprogesterone acetate, Medroxyprogesterone acetate]
anti-estrogen activity of PR agonists (human estrogen receptor [3]; PR-A co-expressed, 10^-7 M 17-β-estradiol, FIG. 13): considerably less effective

Source: US5506102A (priority 1993, dated 1996)
